Measured values: the supplement of paper PMC10307832

Tests used:
Test in all cases: relative viability (nuclei count vs DMSO), 5 days (fraction); higher = more cells survive
[1] = test system: NCI-H2347
Outline: (§1)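 Lung cancer cell lines were seeded in 1536-well plates and dosed by pin tool the next day, with either a single drug or a fixed anchor-drug dose combined with five library-drug doses (not always all listed) spaced in √10 steps. Five days later, one step fixed the cells and stained their nuclei (final 0.05% Triton X-100, 1% formaldehyde, 1 ug/ml Hoechst), and nuclei were counted on 4× images. Relative viability is the nuclei count in treated wells divided by the count in vehicle wells, and each value is the median of duplicate plates.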

[2] = test system: SW 1573
Outline: as §1

[3] = test system: HARA
Outline: as §1

[4] = test system: LU99A
Outline: as §1

[5] = test system: UMC-11
Outline: as §1

[6] = test system: NCI-H838
Outline: as §1

[7] = test system: NCI-H2126
Outline: as §1

[8] = test system: EPLC-272H
Outline: as §1

[9] = test system: NCI-H1651
Outline: as §1

[10] = test system: NCI-H1915
Outline: as §1

[11] = test system: NCI-H2342
Outline: as §1

[12] = test system: NCI-H460
Outline: as §1

[13] = test system: HCC-15
Outline: as §1

[14] = test system: NCI-H358
Outline: as §1

[15] = test system: NCI-H2009
Outline: as §1

[16] = test system: NCI-H1993
Outline: as §1

[17] = test system: NCI-H650
Outline: as §1

[18] = test system: NCI-H2085
Outline: as §1

[19] = test system: PC-14
Outline: as §1

[20] = test system: ABC-1
Outline: as §1

[21] = test system: COR-L23
Outline: as §1

[22] = test system: HCC-78
Outline: as §1

[23] = test system: LC-2-ad
Outline: as §1

Work on `COc1cc(N2CCC(C(N)=O)CC2)ccc1Nc1nc(N)c(Cl)c(Nc2ccccc2S(=O)(=O)C(C)C)n1` [HG-5-88-01] + COc1cc2c(Oc3ccc(NC(=O)C4(C(=O)Nc5ccc(F)cc5)CC4)cc3F)ccnc2cc1OCCCN1CCOCC1 [Foretinib] (partner 0.25 µM) yielded a relative viability ([1]; first compound 0.04 µM) of 0.845, a relative viability ([1]; first compound 0.1265 µM) of 0.974 and a relative viability ([1]; first compound 0.4 µM) of 1.03. The relative viability ([1]; first compound 1.265 µM) was 0.65, the relative viability ([1]; first compound 4 µM) was 0.452 and the relative viability ([2]; first compound 0.04 µM) was 0.868. The relative viability ([2]; first compound 0.1265 µM) was 0.816, the relative viability ([2]; first compound 0.4 µM) was 0.942 and the relative viability ([2]; first compound 1.265 µM) was 0.736. It also gave a relative viability ([2]; first compound 4 µM) of 0.624, a relative viability ([3]; first compound 0.04 µM) of 0.917 and a relative viability ([3]; first compound 0.1265 µM) of 0.878. It also gave a relative viability ([3]; first compound 0.4 µM) of 0.875, a relative viability ([3]; first compound 1.265 µM) of 0.733 and a relative viability ([3]; first compound 4 µM) of 0.694. The relative viability ([4]; first compound 0.04 µM) was 0.774, the relative viability ([4]; first compound 0.1265 µM) was 0.751 and the relative viability ([4]; first compound 0.4 µM) was 0.781. The relative viability ([4]; first compound 1.265 µM) was 0.83, the relative viability ([4]; first compound 4 µM) was 0.801 and the relative viability ([5]; first compound 0.04 µM) was 1.09. It also gave a relative viability ([5]; first compound 0.1265 µM) of 1.07, a relative viability ([5]; first compound 1.265 µM) of 0.923 and a relative viability ([5]; first compound 4 µM) of 0.371. For the same compound, the relative viability ([6]; first compound 0.04 µM) was 0.939, the relative viability ([6]; first compound 0.1265 µM) was 1.02 and the relative viability ([6]; first compound 0.4 µM) was 0.797. For the same compound, the relative viability ([6]; first compound 1.265 µM) was 0.814, the relative viability ([6]; first compound 4 µM) was 0.893 and the relative viability ([7]; first compound 0.1265 µM) was 1.22. The relative viability ([7]; first compound 0.4 µM) was 1.05, the relative viability ([7]; first compound 1.265 µM) was 0.937 and the relative viability ([7]; first compound 4 µM) was 1.23. It also gave a relative viability ([8]; first compound 0.04 µM) of 0.761, a relative viability ([8]; first compound 0.1265 µM) of 0.735 and a relative viability ([8]; first compound 0.4 µM) of 0.593. It also gave a relative viability ([8]; first compound 1.265 µM) of 0.472, a relative viability ([8]; first compound 4 µM) of 0.0478 and a relative viability ([9]; first compound 0.04 µM) of 0.793. It also gave a relative viability ([9]; first compound 0.1265 µM) of 0.922, a relative viability ([9]; first compound 0.4 µM) of 0.998 and a relative viability ([9]; first compound 1.265 µM) of 0.762. For the same compound, the relative viability ([9]; first compound 4 µM) was 1.02, the relative viability ([10]; first compound 0.04 µM) was 1.22 and the relative viability ([10]; first compound 0.1265 µM) was 1.22. The relative viability ([10]; first compound 0.4 µM) was 1.04, the relative viability ([10]; first compound 1.265 µM) was 1.2 and the relative viability ([10]; first compound 4 µM) was 1.04. For the same compound, the relative viability ([11]; first compound 0.04 µM) was 1.19, the relative viability ([11]; first compound 0.1265 µM) was 1.06 and the relative viability ([11]; first compound 0.4 µM) was 1.13. It also gave a relative viability ([11]; first compound 1.265 µM) of 0.697, a relative viability ([11]; first compound 4 µM) of 1.04 and a relative viability ([12]; first compound 0.04 µM) of 1.03. It also gave a relative viability ([12]; first compound 0.1265 µM) of 1.01, a relative viability ([12]; first compound 0.4 µM) of 0.929 and a relative viability ([12]; first compound 1.265 µM) of 0.959. The relative viability ([12]; first compound 4 µM) was 0.926, the relative viability ([13]; first compound 0.04 µM) was 1.02 and the relative viability ([13]; first compound 0.1265 µM) was 1.01. The relative viability ([13]; first compound 0.4 µM) was 0.946, the relative viability ([13]; first compound 1.265 µM) was 0.867 and the relative viability ([13]; first compound 4 µM) was 0.703. The relative viability ([14]; first compound 0.04 µM) was 0.676, the relative viability ([14]; first compound 0.1265 µM) was 0.605 and the relative viability ([14]; first compound 0.4 µM) was 0.479. The relative viability ([14]; first compound 1.265 µM) was 0.224, the relative viability ([14]; first compound 4 µM) was 0.23 and the relative viability ([15]; first compound 0.04 µM) was 1.18. For the same compound, the relative viability ([15]; first compound 0.1265 µM) was 1.25, the relative viability ([15]; first compound 0.4 µM) was 1.14 and the relative viability ([15]; first compound 1.265 µM) was 1.14. It also gave a relative viability ([15]; first compound 4 µM) of 1.24, a relative viability ([16]; first compound 0.04 µM) of 0.739 and a relative viability ([16]; first compound 0.1265 µM) of 0.727. The relative viability ([16]; first compound 0.4 µM) was 0.725, the relative viability ([16]; first compound 1.265 µM) was 0.586 and the relative viability ([16]; first compound 4 µM) was 0.623. The relative viability ([17]; first compound 0.04 µM) was 1.1, the relative viability ([17]; first compound 0.1265 µM) was 1.18 and the relative viability ([17]; first compound 0.4 µM) was 0.949. The relative viability ([17]; first compound 1.265 µM) was 0.602, the relative viability ([17]; first compound 4 µM) was 0.719 and the relative viability ([18]; first compound 0.04 µM) was 0.852. The relative viability ([18]; first compound 0.1265 µM) was 0.947, the relative viability ([18]; first compound 0.4 µM) was 0.907 and the relative viability ([18]; first compound 1.265 µM) was 0.704. For the same compound, the relative viability ([18]; first compound 4 µM) was 0.807, the relative viability ([19]; first compound 0.04 µM) was 0.974 and the relative viability ([19]; first compound 0.1265 µM) was 0.951. For the same compound, the relative viability ([19]; first compound 0.4 µM) was 0.806, the relative viability ([19]; first compound 1.265 µM) was 0.804 and the relative viability ([19]; first compound 4 µM) was 0.699. It also gave a relative viability ([20]; first compound 0.04 µM) of 0.931, a relative viability ([20]; first compound 0.1265 µM) of 1.16 and a relative viability ([20]; first compound 0.4 µM) of 0.73. For the same compound, the relative viability ([20]; first compound 1.265 µM) was 0.719, the relative viability ([20]; first compound 4 µM) was 0.616 and the relative viability ([21]; first compound 0.04 µM) was 0.903. It also gave a relative viability ([21]; first compound 0.1265 µM) of 0.995, a relative viability ([21]; first compound 0.4 µM) of 0.99 and a relative viability ([21]; first compound 1.265 µM) of 0.768. For the same compound, the relative viability ([21]; first compound 4 µM) was 0.805, the relative viability ([22]; first compound 0.04 µM) was 0.589 and the relative viability ([22]; first compound 0.1265 µM) was 0.533. The relative viability ([22]; first compound 0.4 µM) was 0.583, the relative viability ([22]; first compound 1.265 µM) was 0.377 and the relative viability ([22]; first compound 4 µM) was 0.464. For the same compound, the relative viability ([23]; first compound 0.04 µM) was 0.987, the relative viability ([23]; first compound 0.1265 µM) was 0.906 and the relative viability ([23]; first compound 0.4 µM) was 0.956. It also gave a relative viability ([23]; first compound 1.265 µM) of 0.54 and a relative viability ([23]; first compound 4 µM) of 0.739.
